Assay results reported in US4140767A, “Somatostatin analogs” (Merck & Co., Inc., priority 1977, dated 1979).

Tests used:
plasma insulin = assay: Inhibition of insulin: lowering of portal vein insulin in anesthetized rats; assay type: in vivo, rat; conditions: anesthetized male Sprague-Dawley rats, external jugular vein administration, portal vein blood after 5 minutes; somatostatin = 1; range in brackets
Procedure: (§1) The relative potencies of somatostatin analogs on the lowering of plasma insulin and glucagon are determined by the following method:
(§2) Analogs of somatostatin were […] to somatostatin in their ability to lower the levels of portal vein glucagon and insulin in anesthetized rats. Male Sprague-Dawley rats (Charles River CD) weighing 160-200 grams were anesthetized with urethane (150 mg./100 gm.) Saline or peptides were administered via the external jugular vein. After 5 minutes the portal vein was exposed and blood was collected via syringes containing 3 mg. EDTA and placed in chilled tubes containing 100 μl. of Trasylol (obtained from FBA Pharmaceuticals) for subsequent hormone analysis. Plasma levels of glucagon were determined by the method of Faloona, G. R., and Unger, R. H. "Glucagon" in Methods of Hormone Radioimmunoassay, eds. […] Plasma levels of insulin were determined by a modification of the procedure of Herbert, V., Lau, K. S., Gottlieb, C. […]
(§3) Doses were randomized between groups of animals (6 rats/group). Potency values were determined by four, six, or 8 point bioassays with somatostatin as the reference standard. Relative potency values were calculated by a relative potency formula for parallel line bioassays as described in Finney, D. J. Statistical Method in Biological Assay (Charles Griffin and Co., Ltd., London) Chap. […]

growth hormone release = assay: Inhibition of pentobarbital stimulated growth hormone release in vivo; parameters: species or system rat; conditions: rats, sodium pentobarbitol 17 mg./Kg., analog subcutaneously, blood after 15 minutes; somatostatin = 1; range in brackets
Procedure: Somatostatin analogs were compared to somatostain in their ability to inhibit the release of growth hormone in pentobarbital stimulated rats; a modification of the procedure of Brazeau et al. Endocrinology, 94, 184-187 (1974) was empaloyed. Rats were lightly etherized and sodium pentobarbitol (17 mg./Kg.) was injected into the exposed Saphenous vein; somatostatin or analog was simultaneously injected subcutaneously. After 15 minutes the animals were bled via the orbital sinus and blood collected for subsequent growth hormone analysis.
(§4) Doses were randomized between groups of animals (6 rats/group). Potency values were determined by four, six, or 8 point bioassays with somatostatin as the reference standard. Relative potency values were calculated by a relative potency formula for parallel line bioassays as described in Finney, D. J. Statistical Method in Biological Assay (Charles Griffin and Co., Ltd., London) Chap. 4 pp. 99-138 (1964).

Rat pituicytes = assay: Growth hormone inhibition in vitro; assay type: cell-based; conditions: rat pituicytes after 4 days in culture, 4 hours incubation; somatostatin = 1; range in brackets
Procedure: Rat pituicytes were isolated according to the procedures of Vale and Grant "In vitro Pituitary Hormone Secretion Assay for Hypophysiotropic Substances" in Methods in Enzymology. Vo. XXXVII, eds. O'Malley, B. W. and Hardman, J. G. (Academic Press, Inc., New York) pp. 5-93 (1975).
After 4 days in culture, the cells were washed and incubated for 4 hours in Dulbecco-modified Eagle's medium in the presence or absence of graded doses of each analog or somatostatin. The medium was then collected for subsequent growth hormone determination by a double antibody radioimmunoassay for rat growth hormone.
as §4

plasma glucagon = assay: Inhibition of glucagon: lowering of portal vein glucagon in anesthetized rats; assay type: in vivo, rat; conditions: anesthetized male Sprague-Dawley rats, external jugular vein administration, portal vein blood after 5 minutes; somatostatin = 1; range in brackets
Procedure: as §1, §2, §3

C[C@H](N)C(=O)NCC(=O)N[C@H]1CSSC[C@@H](C(=O)O)NC(=O)[C@H](CO)NC(=O)[C@H]([C@@H](C)O)NC(=O)[C@H](Cc2ccccc2)NC(=O)[C@H]([C@@H](C)O)NC(=O)[C@H](CCCCN)NC(=O)[C@H](Cc2c[nH]c3ccccc23)NC(=O)[C@H](Cc2ccccc2)NC(=O)[C@H](Cc2ccccc2)NC(=O)[C@H](CC(N)=O)NC(=O)[C@H](CCCCN)NC1=O [Somatostatin]
1: Inhibition of Insulin; potency relative to somatostatin (plasma insulin) | Inhibition of Pentobarbital Stimulated Growth Hormone Release In Vivo; potency relative to somatostatin (growth hormone release) | Growth Hormone Inhibition In Vitro; potency relative to somatostatin (Rat pituicytes) | Inhibition of Glucagon; potency relative to somatostatin (plasma glucagon)
